The values below come from PubChem BioAssay (NCI).

Among the test systems are HCC-2998 colon; T-47D breast; HCT-116 colon; IGROV1 ovarian; COLO 205 colon; SF-295 CNS; ACHN renal; SNB-75 CNS; NCI-H522 lung; NCI-H460 lung; SN12C renal; SK-OV-3 ovarian; HT29 colon; HS 578T breast.
What all share (assay): NCI anticancer screen, dose series, 48 h

Molecules are shown by their SMILES.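 1) Cells in 96-well plates. 2) Compound, 48 h, 5 concentrations. 3) Linear interpolation between surrounding doses. 4) Unreached endpoint = highest concentration. GI50 is the concentration that inhibits growth by half. TGI denotes the concentration required for complete inhibition of growth.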

On to `COC(=O)CCC12CCC(O1)c1ccccc12` (configuration not stated), for which the TGI with HCC-2998 colon, with T-47D breast, with HCT-116 colon, in the assay on IGROV1 ovarian, with COLO 205 colon and in the assay on SF-295 CNS was above 100 µM in each case. In addition, the TGI with ACHN renal, in the assay on SNB-75 CNS, in the assay on NCI-H522 lung, in the assay with NCI-H460 lung, in the assay on SN12C renal and with SK-OV-3 ovarian was above 100 µM throughout. Moreover, in the assay with HT29 colon, the TGI is above 100 µM.

Regarding `N/C(=N/n1c(=S)[nH]c2ccccc2c1=O)Nn1c(=S)[nH]c2ccccc2c1=O`, the TGI with HCC-2998 colon was above 100 µM; in the assay with T-47D breast, 66.3 µM; in the assay on HCT-116 colon, 30.4 µM; with IGROV1 ovarian, above 100 µM; with COLO 205 colon it was 77.6 µM; with SF-295 CNS it was above 100 µM. In addition, the TGI was above 100 µM in the assay on ACHN renal; above 100 µM with SNB-75 CNS; 30 µM with NCI-H522 lung; above 100 µM in the assay on NCI-H460 lung; above 100 µM in the assay with SK-OV-3 ovarian.

`O=c1oc2ccccc2n1CCN1CCCCC1`: the TGI in the assay on HCT-116 colon, in the assay on IGROV1 ovarian, in the assay on COLO 205 colon, with SF-295 CNS, in the assay on HS 578T breast and in the assay with ACHN renal was above 100 µM throughout. Further, the TGI in the assay on SNB-75 CNS, with NCI-H460 lung, in the assay with SN12C renal, with SK-OV-3 ovarian and with HT29 colon was above 100 µM in each case.

On to `COc1cc2c(c(OC)c1OC)-c1ccc(SC)cc1[C@H](OC(=O)c1ccccc1)CC2`, for which the TGI in the assay on HCC-2998 colon was 11.7 µM; in the assay on T-47D breast, above 100 µM; in the assay with HCT-116 colon, 1.45 µM; with IGROV1 ovarian, above 100 µM; with COLO 205 colon, 0.446 µM; in the assay with SF-295 CNS it was above 100 µM. Besides, the TGI is above 100 µM in the assay on ACHN renal; above 100 µM in the assay with SNB-75 CNS; above 100 µM in the assay with NCI-H460 lung; above 78.2 µM in the assay with SN12C renal; above 100 µM with SK-OV-3 ovarian.

Consider `C[Si](C)(OCCS(=O)(=O)O)C1S(=O)(=O)OCCOS1(=O)=O`, for which the TGI with HCC-2998 colon is above 100 µM; in the assay on T-47D breast, above 100 µM; with HCT-116 colon, above 100 µM; in the assay on IGROV1 ovarian, above 100 µM; with COLO 205 colon, above 100 µM; in the assay with SF-295 CNS it was 31.8 µM. Moreover, the TGI in the assay with ACHN renal is above 100 µM; with SNB-75 CNS, 59.9 µM; with NCI-H522 lung, above 100 µM; with NCI-H460 lung, above 100 µM; in the assay with SN12C renal, above 100 µM; in the assay on SK-OV-3 ovarian it was above 100 µM. Moreover, the TGI with HT29 colon is above 100 µM.

On to `CC(=O)OCC1=C(C)C(OC(=O)C(OC(C)=O)[C@@H](NC(=O)c2ccccc2)c2ccccc2)CCC1(C)C` (some centres not stated), for which the TGI with HCC-2998 colon, in the assay with T-47D breast, in the assay on HCT-116 colon, with IGROV1 ovarian, in the assay on COLO 205 colon and in the assay with SF-295 CNS was above 100 µM throughout. In addition, the TGI in the assay on ACHN renal, in the assay on SNB-75 CNS, in the assay with NCI-H460 lung, in the assay on SN12C renal, in the assay with SK-OV-3 ovarian and with HT29 colon was above 100 µM in each case.

With `CCN(CC)C(=S)SS(=O)(=O)c1ccc([N+](=O)[O-])cc1`, the GI50 in the assay with HCC-2998 colon was 93.7 µM; in the assay on SF-295 CNS, 58.9 µM; in the assay with HS 578T breast, above 100 µM; with ACHN renal, 36.5 µM; with SN12C renal, 26.9 µM; with HT29 colon, 22 µM. The TGI in the assay with HCC-2998 colon, in the assay with T-47D breast, with COLO 205 colon, in the assay with SF-295 CNS, with HS 578T breast and with ACHN renal was above 100 µM throughout. Besides, the TGI in the assay with NCI-H460 lung was above 100 µM; with SN12C renal it was above 100 µM; in the assay with SK-OV-3 ovarian, above 100 µM; in the assay with HT29 colon, 64.7 µM.

In the case of `N#CC1(C#N)NC(c2ccsc2)C(C#N)(C#N)NC1c1ccsc1` (configuration not stated), the TGI in the assay with HCC-2998 colon, in the assay with HCT-116 colon, in the assay on IGROV1 ovarian, in the assay with COLO 205 colon, in the assay with SF-295 CNS and with HS 578T breast was above 100 µM throughout. For the same molecule, the TGI with ACHN renal, in the assay with SNB-75 CNS, with NCI-H522 lung, in the assay with NCI-H460 lung, with SN12C renal and in the assay on SK-OV-3 ovarian was above 100 µM each time. Moreover, the TGI in the assay with HT29 colon was above 100 µM.

`COc1cc(COC(=O)N2CCC2C(=O)O)c([N+](=O)[O-])cc1OC` (configuration not stated): the TGI with HCC-2998 colon, with T-47D breast, with HCT-116 colon, with IGROV1 ovarian, in the assay on COLO 205 colon and in the assay with SF-295 CNS was above 100 µM throughout. For the same molecule, the TGI in the assay with HS 578T breast, with ACHN renal, in the assay with SNB-75 CNS, in the assay with NCI-H460 lung, in the assay with SN12C renal and in the assay on SK-OV-3 ovarian was above 100 µM each time. This molecule displayed a TGI with HT29 colon above 100 µM.

As for `CCOc1cc(NC(C)=O)ccc1C(=O)NN1C(=O)/C(=C/c2cc(OC)c(OC)c(OC)c2)N=C1c1ccccc1`, the TGI in the assay on HCC-2998 colon, in the assay with HCT-116 colon, in the assay on IGROV1 ovarian, with COLO 205 colon, in the assay with SF-295 CNS and in the assay with HS 578T breast was above 100 µM each time. For the same molecule, the TGI in the assay with ACHN renal, in the assay with NCI-H522 lung, with NCI-H460 lung, with SN12C renal, in the assay on SK-OV-3 ovarian and in the assay on HT29 colon was above 100 µM throughout.

As for `c1cc2c(c(-c3c4ccccc4nc4ccccc34)c1)CC1(CC2)OCCO1`, the TGI with HCC-2998 colon, in the assay with T-47D breast, with HCT-116 colon, in the assay on IGROV1 ovarian, in the assay on COLO 205 colon and with SF-295 CNS was above 100 µM each time. Also, the TGI with ACHN renal, in the assay with SNB-75 CNS, in the assay on NCI-H522 lung, with NCI-H460 lung, in the assay on SN12C renal and with SK-OV-3 ovarian was above 100 µM each time.
